{"source": "PubChem BioAssay AID2060891", "about": "(Molecular Pharmacology Branch, DTP, NCI, 2025);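 further: spheroids exposed to agents for seven days before the viability readout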;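 on viability, T/C: luminescence used as a proxy for viable cell amount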", "test_system": "K98450-129-R-PDC complex spheroid growth, percent test/control", "experiment": "Anticancer human tumor K98450-129-R-PDC patient-derived colon adenocarcinoma cell line growth inhibition [RAS]", "details": "for IC50: curve of first compound; for viability, T/C: stronger effect = lower value", "summary_of_the_method": "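Multi-cell-type spheroids: tumor cells plus HUVEC endothelial cells and mesenchymal stem cells. RAS-pathway inhibitors were combined with targeted agents, each dosed in half-log steps down from clinical Cmax, or from 10 microM when Cmax was unknown.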", "key": {"[1]": {"details": "second compound 0.000949 µM, first compound 0.0316 µM"}, "[2]": {"details": "second compound 0.000949 µM, first compound 0.1 µM"}, "[3]": {"details": "second compound 0.000949 µM, first compound 0.316 µM"}, "[4]": {"details": "second compound 0.000949 µM, first compound 1 µM"}, "[5]": {"details": "second compound 0.000949 µM, first compound 3.16 µM"}, "[6]": {"details": "second compound 0.000949 µM, first compound 10 µM"}, "[7]": {"details": "second compound 0.003 µM, first compound 0.0316 µM"}, "[8]": {"details": "second compound 0.003 µM, first compound 0.1 µM"}, "[9]": {"details": "second compound 0.003 µM, first compound 0.316 µM"}, "[10]": {"details": "second compound 0.003 µM, first compound 1 µM"}, "[11]": {"details": "second compound 0.003 µM, first compound 3.16 µM"}, "[12]": {"details": "second compound 0.003 µM, first compound 10 µM"}, "[13]": {"details": "second compound 0.00949 µM, first compound 0.0316 µM"}, "[14]": {"details": "second compound 0.00949 µM, first compound 0.1 µM"}, "[15]": {"details": "second compound 0.00949 µM, first compound 0.316 µM"}, "[16]": {"details": "second compound 0.00949 µM, first compound 1 µM"}, "[17]": {"details": "second compound 0.00949 µM, first compound 3.16 µM"}, "[18]": {"details": "second compound 0.00949 µM, first compound 10 µM"}, "[19]": {"details": "second compound 0.03 µM, first compound 0.0316 µM"}, "[20]": {"details": "second compound 0.03 µM, first compound 0.1 µM"}, "[21]": {"details": "second compound 0.03 µM, first compound 0.316 µM"}, "[22]": {"details": "second compound 0.03 µM, first compound 1 µM"}, "[23]": {"details": "second compound 0.03 µM, first compound 3.16 µM"}, "[24]": {"details": "second compound 0.03 µM, first compound 10 µM"}, "[25]": {"details": "second compound 0.0949 µM, first compound 0.0316 µM"}, "[26]": {"details": "second compound 0.0949 µM, first compound 0.1 µM"}, "[27]": {"details": "second compound 0.0949 µM, first compound 0.316 µM"}, "[28]": {"details": "second compound 0.0949 µM, first compound 1 µM"}, "[29]": {"details": "second compound 0.0949 µM, first compound 3.16 µM"}, "[30]": {"details": "second compound 0.0949 µM, first compound 10 µM"}, "[31]": {"details": "second compound 0.3 µM, first compound 0.0316 µM"}, "[32]": {"details": "second compound 0.3 µM, first compound 0.1 µM"}, "[33]": {"details": "second compound 0.3 µM, first compound 0.316 µM"}, "[34]": {"details": "second compound 0.3 µM, first compound 1 µM"}, "[35]": {"details": "second compound 0.3 µM, first compound 3.16 µM"}, "[36]": {"details": "second compound 0.3 µM, first compound 10 µM"}}, "data": [{"smiles": "C[C@@H](NC(=O)c1ncnc(N)c1Cl)c1ncc(C(=O)Nc2cc(C(F)(F)F)c(Cl)cn2)s1", "note": "+ CCn1c(-c2cc(N3CCN(C)CC3)cnc2C(C)OC)c2c3cc(ccc31)-c1csc(n1)CC(NC(=O)C1CC1C)C(=O)N1CCCC(N1)C(=O)OCC(C)(C)C2", "values": [{"measurement": "IC50", "setting": "second compound 0.000949 µM", "result": "> 10000", "unit": "nM"}, {"measurement": "IC50", "setting": "second compound 0.003 µM", "result": "> 10000", "unit": "nM"}, {"measurement": "IC50", "setting": "second compound 0.00949 µM", "result": "> 10000", "unit": "nM"}, {"measurement": "IC50", "setting": "second compound 0.03 µM", "result": "> 10000", "unit": "nM"}, {"measurement": "IC50", "setting": "second compound 0.0949 µM", "result": "< 31.6", "unit": "nM"}, {"measurement": "IC50", "setting": "second compound 0.3 µM", "result": "< 31.6", "unit": "nM"}, {"measurement": "viability, T/C", "setting": "[1]", "result": 105, "unit": "%"}, {"measurement": "viability, T/C", "setting": "[2]", "result": 103, "unit": "%"}, {"measurement": "viability, T/C", "setting": "[3]", "result": 106, "unit": "%"}, {"measurement": "viability, T/C", "setting": "[4]", "result": 97.2, "unit": "%"}, {"measurement": "viability, T/C", "setting": "[5]", "result": 103, "unit": "%"}, {"measurement": "viability, T/C", "setting": "[6]", "result": 90.5, "unit": "%"}, {"measurement": "viability, T/C", "setting": "[7]", "result": 105, "unit": "%"}, {"measurement": "viability, T/C", "setting": "[8]", "result": 88.8, "unit": "%"}, {"measurement": "viability, T/C", "setting": "[9]", "result": 88.4, "unit": "%"}, {"measurement": "viability, T/C", "setting": "[10]", "result": 90.7, "unit": "%"}, {"measurement": "viability, T/C", "setting": "[11]", "result": 110, "unit": "%"}, {"measurement": "viability, T/C", "setting": "[12]", "result": 77.1, "unit": "%"}, {"measurement": "viability, T/C", "setting": "[13]", "result": 76.1, "unit": "%"}, {"measurement": "viability, T/C", "setting": "[14]", "result": 70.7, "unit": "%"}, {"measurement": "viability, T/C", "setting": "[15]", "result": 81.8, "unit": "%"}, {"measurement": "viability, T/C", "setting": "[16]", "result": 88.8, "unit": "%"}, {"measurement": "viability, T/C", "setting": "[17]", "result": 75.3, "unit": "%"}, {"measurement": "viability, T/C", "setting": "[18]", "result": 62.4, "unit": "%"}, {"measurement": "viability, T/C", "setting": "[19]", "result": 57.7, "unit": "%"}, {"measurement": "viability, T/C", "setting": "[20]", "result": 62.3, "unit": "%"}, {"measurement": "viability, T/C", "setting": "[21]", "result": 74.1, "unit": "%"}, {"measurement": "viability, T/C", "setting": "[22]", "result": 67.3, "unit": "%"}, {"measurement": "viability, T/C", "setting": "[23]", "result": 73.9, "unit": "%"}, {"measurement": "viability, T/C", "setting": "[24]", "result": 51.5, "unit": "%"}, {"measurement": "viability, T/C", "setting": "[25]", "result": 25.3, "unit": "%"}, {"measurement": "viability, T/C", "setting": "[26]", "result": 31.9, "unit": "%"}, {"measurement": "viability, T/C", "setting": "[27]", "result": 37, "unit": "%"}, {"measurement": "viability, T/C", "setting": "[28]", "result": 31.9, "unit": "%"}, {"measurement": "viability, T/C", "setting": "[29]", "result": 37.3, "unit": "%"}, {"measurement": "viability, T/C", "setting": "[30]", "result": 17.8, "unit": "%"}, {"measurement": "viability, T/C", "setting": "[31]", "result": 11.4, "unit": "%"}, {"measurement": "viability, T/C", "setting": "[32]", "result": 14.6, "unit": "%"}, {"measurement": "viability, T/C", "setting": "[33]", "result": 16.4, "unit": "%"}, {"measurement": "viability, T/C", "setting": "[34]", "result": 13.5, "unit": "%"}, {"measurement": "viability, T/C", "setting": "[35]", "result": 16, "unit": "%"}, {"measurement": "viability, T/C", "setting": "[36]", "result": 11, "unit": "%"}]}, {"smiles": "CC(=O)OC12COC1CC(O)C1(C)C(=O)C(O)C3=C(C)C(OC(=O)C(O)C(NC(=O)OC(C)(C)C)c4ccccc4)CC(O)(C(OC(=O)c4ccccc4)C21)C3(C)C", "note": "(centres undefined) + CCn1c(-c2cccnc2C(C)OC)c2c3cc(ccc31)N1CCOC(CC(NC(=O)C(C(C)C)N(C)C(=O)C3(F)CCN(C(=O)C#CC(C)(C)N(C)C)CC3)C(=O)N3CCCC(N3)C(=O)OCC(C)(C)C2)C1", "values": [{"measurement": "IC50", "setting": "second compound 0.000949 µM", "result": 190, "unit": "nM"}, {"measurement": "IC50", "setting": "second compound 0.003 µM", "result": 43.1, "unit": "nM"}, {"measurement": "IC50", "setting": "second compound 0.00949 µM", "result": "< 31.6", "unit": "nM"}, {"measurement": "IC50", "setting": "second compound 0.03 µM", "result": "< 31.6", "unit": "nM"}, {"measurement": "IC50", "setting": "second compound 0.0949 µM", "result": "< 31.6", "unit": "nM"}, {"measurement": "IC50", "setting": "second compound 0.3 µM", "result": "< 31.6", "unit": "nM"}, {"measurement": "viability, T/C", "setting": "[1]", "result": 69.7, "unit": "%"}, {"measurement": "viability, T/C", "setting": "[2]", "result": 66.1, "unit": "%"}, {"measurement": "viability, T/C", "setting": "[3]", "result": 37.2, "unit": "%"}, {"measurement": "viability, T/C", "setting": "[4]", "result": 24.6, "unit": "%"}, {"measurement": "viability, T/C", "setting": "[5]", "result": 25.8, "unit": "%"}, {"measurement": "viability, T/C", "setting": "[6]", "result": 24.8, "unit": "%"}, {"measurement": "viability, T/C", "setting": "[7]", "result": 52.4, "unit": "%"}, {"measurement": "viability, T/C", "setting": "[8]", "result": 43.6, "unit": "%"}, {"measurement": "viability, T/C", "setting": "[9]", "result": 23.8, "unit": "%"}, {"measurement": "viability, T/C", "setting": "[10]", "result": 19.7, "unit": "%"}, {"measurement": "viability, T/C", "setting": "[11]", "result": 21.4, "unit": "%"}, {"measurement": "viability, T/C", "setting": "[12]", "result": 20.1, "unit": "%"}, {"measurement": "viability, T/C", "setting": "[13]", "result": 40.6, "unit": "%"}, {"measurement": "viability, T/C", "setting": "[14]", "result": 25.5, "unit": "%"}, {"measurement": "viability, T/C", "setting": "[15]", "result": 19.9, "unit": "%"}, {"measurement": "viability, T/C", "setting": "[16]", "result": 18.7, "unit": "%"}, {"measurement": "viability, T/C", "setting": "[17]", "result": 19.5, "unit": "%"}, {"measurement": "viability, T/C", "setting": "[18]", "result": 18.1, "unit": "%"}, {"measurement": "viability, T/C", "setting": "[19]", "result": 30.9, "unit": "%"}, {"measurement": "viability, T/C", "setting": "[20]", "result": 28.2, "unit": "%"}, {"measurement": "viability, T/C", "setting": "[21]", "result": 19.2, "unit": "%"}, {"measurement": "viability, T/C", "setting": "[22]", "result": 17.7, "unit": "%"}, {"measurement": "viability, T/C", "setting": "[23]", "result": 19.7, "unit": "%"}, {"measurement": "viability, T/C", "setting": "[24]", "result": 20.4, "unit": "%"}, {"measurement": "viability, T/C", "setting": "[25]", "result": 29.6, "unit": "%"}, {"measurement": "viability, T/C", "setting": "[26]", "result": 26.9, "unit": "%"}, {"measurement": "viability, T/C", "setting": "[27]", "result": 18.9, "unit": "%"}, {"measurement": "viability, T/C", "setting": "[28]", "result": 19, "unit": "%"}, {"measurement": "viability, T/C", "setting": "[29]", "result": 18.8, "unit": "%"}, {"measurement": "viability, T/C", "setting": "[30]", "result": 18.4, "unit": "%"}, {"measurement": "viability, T/C", "setting": "[31]", "result": 29.5, "unit": "%"}, {"measurement": "viability, T/C", "setting": "[32]", "result": 22.7, "unit": "%"}, {"measurement": "viability, T/C", "setting": "[33]", "result": 19.1, "unit": "%"}, {"measurement": "viability, T/C", "setting": "[34]", "result": 16.3, "unit": "%"}, {"measurement": "viability, T/C", "setting": "[35]", "result": 16.9, "unit": "%"}, {"measurement": "viability, T/C", "setting": "[36]", "result": 18.6, "unit": "%"}]}]}
